Biological target: T1, SIRT1 (Homo sapiens, UniProt Q96EB6)
T1 sequence (Q96EB6 1-747): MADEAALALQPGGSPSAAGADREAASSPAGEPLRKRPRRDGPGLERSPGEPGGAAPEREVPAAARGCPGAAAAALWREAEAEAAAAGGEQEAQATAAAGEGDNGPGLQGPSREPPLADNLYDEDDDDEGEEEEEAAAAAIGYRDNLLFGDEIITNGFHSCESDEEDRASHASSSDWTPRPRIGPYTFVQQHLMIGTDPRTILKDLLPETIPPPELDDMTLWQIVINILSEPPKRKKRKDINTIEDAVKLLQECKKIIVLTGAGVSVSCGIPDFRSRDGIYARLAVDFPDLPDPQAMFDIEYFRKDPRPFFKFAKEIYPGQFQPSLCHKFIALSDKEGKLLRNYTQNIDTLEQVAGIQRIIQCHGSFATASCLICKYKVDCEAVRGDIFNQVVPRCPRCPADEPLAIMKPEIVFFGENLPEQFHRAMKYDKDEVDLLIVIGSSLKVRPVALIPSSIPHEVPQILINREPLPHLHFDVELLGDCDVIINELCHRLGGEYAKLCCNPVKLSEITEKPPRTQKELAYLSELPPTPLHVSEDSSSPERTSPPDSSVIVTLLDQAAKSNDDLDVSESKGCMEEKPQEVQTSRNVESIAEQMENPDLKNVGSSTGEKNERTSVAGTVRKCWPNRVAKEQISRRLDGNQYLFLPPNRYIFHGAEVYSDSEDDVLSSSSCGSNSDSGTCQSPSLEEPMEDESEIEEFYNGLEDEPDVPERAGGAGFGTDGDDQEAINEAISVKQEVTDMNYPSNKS
Test: Mass spectrometry based SIRT1 deacetylation (activation) assay
Format: biochemical
Conditions: 0.5 μM peptide substrate, 120 μM βNAD+, 10 nM SIRT1, 25 min at 25° C.; for Emax: 25 min, read-out: % Fold Act. (percent maximum fold activation)

SMILES | EC1.5 | Emax [%]
CCN(CCN(C)C)c1cc(C(=O)Nc2ccccc2C(=O)NC2CCN(C(=O)OC(C)(C)C)C2)nc(-c2ccccc2)n1 (stereo not shown) [Compound 173, tert-butyl 3-(2-(6-((2-(dimethylamino)ethyl)(ethyl)amino)-2-phenylpyrimidine-4-carboxamido)benzamido)pyrrolidine-1-carboxylate] | B (EC1.5>1 and ≦10 uM) | ≥ 300
CCN(CCN(C)C)c1cc(C(=O)Nc2ccccc2-c2nnc(C3CCCC3)s2)nc(-c2ccccc2)n1 [Compound 50] | B (EC1.5>1 and ≦10 uM) | 150 to 300
CN(C)CCNc1cc(C(=O)Nc2ccccc2-c2nnc(-c3ccccc3)s2)nc(-c2ccccc2)c1 [Compound 33] | A (EC1.5≦1 uM) | ≥ 300
CNCCN(C)c1cc(C(=O)Nc2ccccc2-c2nncs2)nc(-c2ccccc2)n1 [Compound 40] | A (EC1.5≦1 uM) | ≥ 300
CN(C)CCNc1cc(C(=O)Nc2ccccc2C(=O)Nc2ccc(C(N)=O)cc2)nc(-c2ccccc2)n1 [Compound 157, N-(2-(4-carbamoylphenylcarbamoyl)phenyl)-6-(2-(dimethylamino)ethylamino)-2-phenylpyrimidine-4-carboxamide] | A (EC1.5≦1 uM) | 150 to 300
O=C(Nc1ccccc1-c1ncc(-c2ccccc2)s1)c1cc(NCCN2CCCC2)nc(-c2ccccc2)n1 [Compound 19] | A (EC1.5≦1 uM) | 150 to 300
CN(C)CCNc1cc(C(=O)Nc2ccccc2-c2ncc(-c3ccccc3)o2)nc(-c2ccccc2)n1 [Compound 38] | A (EC1.5≦1 uM) | 150 to 300
CN(C)CCNc1cc(C(=O)Nc2ccccc2-c2csc(-c3ccccc3)n2)nc(-c2ccccc2)n1 [Compound 12] | B (EC1.5>1 and ≦10 uM) | 150 to 300
CNC(=O)c1ccccc1NC(=O)c1cc(NCCN(C)C)nc(-c2ccccc2)n1 [Compound 125, 6-(2-(dimethylamino)ethylamino)-N-(2-(methylcarbamoyl)phenyl)-2-phenylpyrimidine-4-carboxamide] | B (EC1.5>1 and ≦10 uM) | ≥ 300
CC(C)(C)c1cnc(-c2ccccc2NC(=O)c2cc(OC[C@@H](O)CO)cc(-c3ccccc3)n2)o1 [Compound 76] | B (EC1.5>1 and ≦10 uM) | ≥ 300
CN(C)CCNc1cc(C(=O)Nc2ccccc2-c2nnc(C(N)=O)s2)nc(-c2ccccc2)n1 [Compound 66] | A (EC1.5≦1 uM) | 150 to 300
CN(C)CCNc1cc(C(=O)Nc2ccccc2C(=O)Nc2ccccc2S(C)(=O)=O)nc(-c2ccccc2)n1 [Compound 163, 6-(2-(dimethylamino)ethylamino)-N-(2-(2-(methylsulfonyl)phenylcarbamoyl)phenyl)-2-phenylpyrimidine-4-carboxamide] | B (EC1.5>1 and ≦10 uM) | 150 to 300
CN(C)CCNc1cc(C(=O)Nc2ccccc2Br)nc(-c2ccccc2)n1 [Compound 136] | B (EC1.5>1 and ≦10 uM) | 150 to 300
CC(C)C(=O)c1ccccc1NC(=O)c1cc(NCCN(C)C)nc(-c2ccccc2)n1 [Compound 142] | B (EC1.5>1 and ≦10 uM) | 150 to 300
CN(C)CCNc1cc(C(=O)Nc2ccccc2-c2nncs2)nc(-c2ccccc2)n1 [Compound 26] | A (EC1.5≦1 uM) | ≥ 300
CN(C)CCNc1cc(C(=O)Nc2ccccc2-c2nccs2)nc(-c2ccccc2)n1 [Compound 8] | A (EC1.5≦1 uM) | ≥ 300

SMILES | EC1.5 | Emax [%]
O=C(Nc1ccccc1-c1nncs1)c1cc(OC[C@@H](O)CO)nc(-c2ccccc2)n1 [Compound 110] | A (EC1.5≦1 uM) | ≥ 300
CCN(CC)CCNc1cc(C(=O)Nc2ccccc2C(C)=O)nc(-c2ccccc2)n1 [Compound 135] | B (EC1.5>1 and ≦10 uM) | ≥ 300
CCN(CCN(C)C)c1cc(C(=O)Nc2ccccc2C(=O)NC2CC2)nc(-c2ccccc2)n1 [Compound 168, N-(2-(cyclopropylcarbamoyl)phenyl)-6-((2-(dimethylamino)ethyl)(ethyl)amino)-2-phenylpyrimidine-4-carboxamide] | A (EC1.5≦1 uM) | 150 to 300
O=C(Nc1ccccc1-c1nnc(N2CCOCC2)s1)c1cc(OC[C@H](O)CO)nc(-c2ccccc2)n1 [Compound 109] | A (EC1.5≦1 uM) | ≥ 300
O=C(Nc1ccccc1-c1nnc(C(=O)N2CCOCC2)s1)c1cc(NC(CO)CO)nc(-c2ccccc2)n1 [Compound 90] | A (EC1.5≦1 uM) | ≥ 300
CCc1nnc(-c2ccccc2NC(=O)c2cc(N(CC)CCN(C)C)nc(-c3ccccc3)n2)s1 [Compound 55] | A (EC1.5≦1 uM) | 150 to 300
CCN(CCN(C)C)c1cc(C(=O)Nc2ccccc2C(=O)N[C@@H]2CCCC[C@H]2O)nc(-c2ccccc2)n1 [Compound 171, 6-((2-(dimethylamino)ethyl)(ethyl)amino)-N-(2-((1R,2R)-2-hydroxycyclohexylcarbamoyl)phenyl)-2-phenylpyrimidine-4-carboxamide] | A (EC1.5≦1 uM) | ≥ 300
CCc1nnc(-c2ccccc2NC(=O)c2cc(N(C)CCN(C)C)nc(-c3ccccc3)n2)s1 [Compound 56] | B (EC1.5>1 and ≦10 uM) | 150 to 300
CCN(CCN(C)C)c1cc(C(=O)Nc2ccccc2-c2nnc(C3CCOC3)s2)nc(-c2ccccc2)n1 (stereo not shown) [Compound 97, 6-((2-(dimethylamino)ethyl)(ethyl)amino)-2-phenyl-N-(2-(5-(tetrahydrofuran-3-yl)-1,3,4-thiadiazol-2-yl)phenyl)pyrimidine-4-carboxamide] | A (EC1.5≦1 uM) | ≥ 300
CN(C)CCNc1cc(C(=O)Nc2ccccc2C(=O)Nc2ccccn2)nc(-c2ccccc2)n1 [Compound 158, 6-(2-(dimethylamino)ethylamino)-2-phenyl-N-(2-(pyridin-2-ylcarbamoyl)phenyl)pyrimidine-4-carboxamide] | A (EC1.5≦1 uM) | 150 to 300
CCC(=O)c1ccccc1NC(=O)c1cc(NCCN(C)C)nc(-c2ccccc2)n1 [Compound 126] | B (EC1.5>1 and ≦10 uM) | 150 to 300
O=C(Nc1ccccc1-c1ncc(-c2ccccc2)s1)c1cc(NCCN2CCCCC2)nc(-c2ccccc2)n1 [Compound 17] | A (EC1.5≦1 uM) | 150 to 300
CN(C)CCNc1cc(C(=O)Nc2ccccc2C(=O)NCC[S+](C)[O-])nc(-c2ccccc2)n1 (stereo not shown) [Compound 152, 6-(2-(dimethylamino)ethylamino)-N-(2-(2-(methylsulfinyl)ethylcarbamoyl)phenyl)-2-phenylpyrimidine-4-carboxamide] | B (EC1.5>1 and ≦10 uM) | 150 to 300
CCN(CCN(C)C)c1cc(C(=O)Nc2ccccc2C(=O)NC2CCNC2)nc(-c2ccccc2)n1 (stereo not shown) [Compound 175, 6-((2-(dimethylamino)ethyl)(ethyl)amino)-2-phenyl-N-(2-(pyrrolidin-3-ylcarbamoyl)phenyl)pyrimidine-4-carboxamide] | A (EC1.5≦1 uM) | ≥ 300
CN(C)CCNc1cc(C(=O)Nc2ccccc2-c2nnc(-c3ccccn3)s2)nc(-c2ccccc2)n1 [Compound 73] | A (EC1.5≦1 uM) | ≥ 300
CCN(CCN(C)C)c1cc(C(=O)Nc2ccccc2-c2nnc([S+](C)[O-])s2)nc(-c2ccccc2)n1 (stereo not shown) [Compound 116] | A (EC1.5≦1 uM) | ≥ 300

Source: patent publication US20110039847A1, “AMIDE DERIVATIVES AS SIRTUIN MODULATORS” (Sirtris Pharmaceuticals, Inc, priority 2007, published 2011)
